{
  "source": "ChEMBL document CHEMBL4665693",
  "about": "“Amentotaxins C-V, Structurally Diverse Diterpenoids from the Leaves and Twigs of the Vulnerable Conifer Amentotaxus argotaenia and Their Cytotoxic Effects” (J Nat Prod, 2020)",
  "format_in_all_cases": "functional, cell-based",
  "key": {"SK-OV-3": {"tested_on": "SK-OV-3", "assay": "Cytotoxicity against human SK-OV-3 cells assessed as reduction in cell viability incubated for 48 hrs by MTT assay", "conditions": "SK-OV-3, 48 h"}, "A549": {"tested_on": "A549", "assay": "Cytotoxicity against human A549 cells assessed as reduction in cell viability incubated for 48 hrs by MTT assay", "conditions": "A549, 48 h"}, "MDA-MB-231": {"tested_on": "MDA-MB-231", "assay": "Cytotoxicity against human MDA-MB-231 cells assessed as reduction in cell viability incubated for 48 hrs by MTT assay", "conditions": "MDA-MB-231, 48 h"}, "Huh-7": {"tested_on": "Huh-7", "assay": "Cytotoxicity against human Huh-7 cells assessed as reduction in cell viability incubated for 48 hrs by MTT assay", "conditions": "Huh-7, 48 h"}, "HeLa": {"tested_on": "HeLa", "assay": "Cytotoxicity against human HeLa cells assessed as reduction in cell viability incubated for 48 hrs by MTT assay"}, "HCT-116": {"tested_on": "HCT-116", "assay": "Cytotoxicity against human HCT-116 cells assessed as reduction in cell viability incubated for 48 hrs by MTT assay", "conditions": "HCT-116, 48 h"}},
  "data": [
    {"smiles": "C=C1[C@H](O)C[C@@H]2[C@@](C)(CO)CCC[C@@]2(C)[C@@H]1C/C=C(\\C)C=O", "values": [
      {"measurement": "IC50", "setting": "SK-OV-3", "value": "> 10", "unit": "µM"},
      {"measurement": "IC50", "setting": "A549", "value": "> 10", "unit": "µM"},
      {"measurement": "IC50", "setting": "MDA-MB-231", "value": 1.5, "unit": "µM"},
      {"measurement": "IC50", "setting": "Huh-7", "value": "> 10", "unit": "µM"},
      {"measurement": "IC50", "setting": "HeLa", "value": "> 10", "unit": "µM"},
      {"measurement": "IC50", "setting": "HCT-116", "value": "> 10", "unit": "µM"}
    ]},
    {"smiles": "C=C1C(=O)[C@]23CC[C@H]4[C@@](C)(CC[C@@H](O)[C@@]45CO5)[C@@H]2CC[C@H]1C3", "values": [
      {"measurement": "IC50", "setting": "SK-OV-3", "value": 2.9, "unit": "µM"},
      {"measurement": "IC50", "setting": "A549", "value": 9.8, "unit": "µM"},
      {"measurement": "IC50", "setting": "MDA-MB-231", "value": 6.8, "unit": "µM"},
      {"measurement": "IC50", "setting": "Huh-7", "value": 4.1, "unit": "µM"},
      {"measurement": "IC50", "setting": "HeLa", "value": 5.1, "unit": "µM"},
      {"measurement": "IC50", "setting": "HCT-116", "value": 1.9, "unit": "µM"}
    ]},
    {"smiles": "C=C1[C@H](O)C[C@@H]2[C@@](C)(CO)CCC[C@@]2(C)[C@@H]1C[C@H]1OC(=O)C=C1C", "values": [
      {"measurement": "IC50", "setting": "SK-OV-3", "value": "> 10", "unit": "µM"},
      {"measurement": "IC50", "setting": "A549", "value": "> 10", "unit": "µM"},
      {"measurement": "IC50", "setting": "MDA-MB-231", "value": 1.6, "unit": "µM"},
      {"measurement": "IC50", "setting": "Huh-7", "value": "> 10", "unit": "µM"},
      {"measurement": "IC50", "setting": "HeLa", "value": "> 10", "unit": "µM"},
      {"measurement": "IC50", "setting": "HCT-116", "value": "> 10", "unit": "µM"}
    ]},
    {"smiles": "C=C1C(=O)[C@]23CC[C@@H]4[C@@](C)(CO)CCC[C@@]4(C)[C@@H]2CC[C@H]1C3", "values": [
      {"measurement": "IC50", "setting": "SK-OV-3", "value": 6.9, "unit": "µM"},
      {"measurement": "IC50", "setting": "A549", "value": 8.1, "unit": "µM"},
      {"measurement": "IC50", "setting": "MDA-MB-231", "value": 10, "unit": "µM"},
      {"measurement": "IC50", "setting": "Huh-7", "value": 9.7, "unit": "µM"},
      {"measurement": "IC50", "setting": "HeLa", "value": "> 10", "unit": "µM"},
      {"measurement": "IC50", "setting": "HCT-116", "value": 2.9, "unit": "µM"}
    ]},
    {"smiles": "CC(C)c1cc2c(cc1O)[C@@]1(C)CC[C@H](O)C(C)(C)[C@@H]1CC2=O", "values": [
      {"measurement": "IC50", "setting": "SK-OV-3", "value": "> 10", "unit": "µM"},
      {"measurement": "IC50", "setting": "A549", "value": "> 10", "unit": "µM"},
      {"measurement": "IC50", "setting": "MDA-MB-231", "value": 1.6, "unit": "µM"},
      {"measurement": "IC50", "setting": "Huh-7", "value": "> 10", "unit": "µM"},
      {"measurement": "IC50", "setting": "HeLa", "value": "> 10", "unit": "µM"},
      {"measurement": "IC50", "setting": "HCT-116", "value": "> 10", "unit": "µM"}
    ]},
    {"smiles": "C=C1C[C@@]23C[C@@H]1CC[C@H]2[C@]1(C)CCC[C@@](C)(C(=O)O)[C@H]1[C@@H](O)[C@@H]3O", "values": [
      {"measurement": "IC50", "setting": "SK-OV-3", "value": "> 10", "unit": "µM"},
      {"measurement": "IC50", "setting": "A549", "value": "> 10", "unit": "µM"},
      {"measurement": "IC50", "setting": "MDA-MB-231", "value": "> 10", "unit": "µM"},
      {"measurement": "IC50", "setting": "Huh-7", "value": "> 10", "unit": "µM"},
      {"measurement": "IC50", "setting": "HeLa", "value": "> 10", "unit": "µM"},
      {"measurement": "IC50", "setting": "HCT-116", "value": "> 10", "unit": "µM"}
    ]},
    {"smiles": "C=C1[C@H](O)C[C@@H]2[C@@](C)(CO)CCC[C@@]2(C)[C@@H]1/C=C/C(C)=O", "values": [
      {"measurement": "IC50", "setting": "SK-OV-3", "value": "> 10", "unit": "µM"},
      {"measurement": "IC50", "setting": "A549", "value": "> 10", "unit": "µM"},
      {"measurement": "IC50", "setting": "MDA-MB-231", "value": 3, "unit": "µM"},
      {"measurement": "IC50", "setting": "Huh-7", "value": "> 10", "unit": "µM"},
      {"measurement": "IC50", "setting": "HeLa", "value": "> 10", "unit": "µM"},
      {"measurement": "IC50", "setting": "HCT-116", "value": "> 10", "unit": "µM"}
    ]},
    {"smiles": "CC(=O)O[C@H]1C(=O)[C@@]2(C)[C@H]([C@H](OC(=O)c3ccccc3)[C@]3(O)C[C@H](OC(=O)[C@H](O)[C@@H](NC(=O)c4ccccc4)c4ccccc4)C(C)=C1C3(C)C)[C@]1(OC(C)=O)CO[C@@H]1C[C@@H]2O", "note": "[PACLITAXEL]", "values": [
      {"measurement": "IC50", "setting": "Huh-7", "value": 0.005, "unit": "µM"},
      {"measurement": "IC50", "setting": "HeLa", "value": 0.004, "unit": "µM"}
    ]}
  ]
}
